B1: Ps2-Ppl #1: Protein L variant PpL #1 (SEQ ID NO. 19) modified with photoswitch PS2 (conjugate)
chain: MATKASKGGGGASEEVTIRVNLIFADGSTQCAEFRGTFEEATAEAYAYADLLARENGEYTACLEDGGNTINIRFAGEDEDEDED
modifications: photoswitch PS2
B2: Ps2-SpG #1: Protein G variant SpG #1 (SEQ ID NO. 18) modified with photoswitch PS2 (conjugate)
chain: MATKASKGGGGTTYRLILNGVTLSGETTTEACDAATAERVFRQYANDYGVDGEWTYDCATRTFTVTEGEDEDEDED
modifications: photoswitch PS2

Key:
[1] = Stability of photoswitch in presence of TCEP during derivatization reaction; assay type: physicochemical; conditions: 1 mM TCEP, pH 8.5, 35° C., 16 h
Method: Freshly degassed and reduced SpA #2 (650 μM, 1.3 μmol, 10 mg, 1 eq) in a total volume of 2 ml was diluted with the same degassed buffer (100 mM sodium borate, 150 mM NaCl, 1 mM TCEP, pH 8.5) to a final protein concentration of 50 μM. This solution was stirred under nitrogen atmosphere while 2.2 mg PS2 (2.6 μmol, 2 eq) dissolved in 0.26 ml DMF, which has been illuminated with red light (635 nm) for 5 min, was added in one portion. The reaction was illuminated with red light and stirred for 16 h at 35° C. […] The derivatization reaction results in a […] amount of intramolecular cross-linked species. Further purification steps by anion exchange chromatography and SEC were performed to remove small amounts of cross-linked species and higher oligomers.

[2] = Thermal cis to trans relaxation of PS4, HPLC; assay type: physicochemical; conditions: 25° C., kept in the dark after yellow light (593 nm) for 2 min
[3] = tested on: immunoglobulin G (IgG) mixture (Cutaquig); assay: Light-controlled affinity purification of IgG from polyclonal antibody mixture Cutaquig; assay type: binding; conditions: sample application and washing under red light, elution under blue light; immobilized on NHS-Agarose
Method: For the functional assessment of the light-switchable affinity matrices, these were encased within a transparent acrylic glass housing, featuring a thickness of 2 mm, to achieve a settled bed volume (SBV) of 250 μl. A LED array equipped with lenses capable of alternating between peak wavelengths of 635 nm (red) and 465 nm (blue) was positioned adjacent to the housing. This configuration ensured thorough and efficient illumination of the entire resin material contained within. The performance of the light-switchable affinity matrix was tested using the polyclonal antibody mixture Cutaquig® (Octapharma) as a substrate.
Initially, the column was equilibrated with 3 mL of running buffer (50 mM TrisHCl, pH 7.6, 150 mM NaCl) using an FPLC system (AKTA Pure 25, Cytiva Life Science). The affinity matrix was then loaded with sample to achieve a 60% breakthrough. Unbound proteins and impurities were removed by washing the column with 7.5 mL of the same running buffer. Both, the sample application and washing steps were performed under red visible light illumination at 635 nm to ensure binding conditions. Following this, the elution of bound immunoglobulin G (IgG) was initiated by switching the illumination to blue visible light at 465 nm, which induces the release of the bound IgG. The resin was regenerated by again illuminating with red visible light at 635 nm, preparing it for subsequent use. […]

Molecule	binding and light-controlled elution of IgG (chromatogram) [3]	other results
COc1cc(-c2ccc(NC(=O)CCl)c(C(=O)NCC(=O)O)c2)cc(OC)c1/N=N/c1c(OC)cc(-c2ccc(NC(=O)CCl)c(C(=O)NCC(=O)O)c2)cc1OC [PS2, 4′-(2-(4-(2-chloroacetamido)-3′,5′-dimethoxybiphenyl-3-ylcarboxyamido)acetic acid)-4′-(2-(4-(2-chloroacetamido)-3′,5′-dimethoxybiphenyl-3-ylcarboxyamido)acetic acid)diazene]		stability in the presence of TCEP [1]: stable
O=C(O)CNC(=O)c1cc(-c2cc(F)c(/N=N/c3c(F)cc(-c4ccc(NC(=O)CCl)c(C(=O)NCC(=O)O)c4)cc3F)c(F)c2)ccc1NC(=O)CCl [PS4, 4′-(2-(4-(2-chloroacetamido)-3′,5′-difluorobiphenyl-3-ylcarboxyamido)acetic acid)-4′-(2-(4-(2-chloroacetamido)-3′,5′-difluorobiphenyl-3-ylcarboxyamido)acetic acid)diazene]		t1/2 (cis→trans) [2]: ≥ 24 h
B1	elution of specifically bound IgG molecules is initiated by blue light illumination	
B2	elution of specifically bound IgG molecules is initiated by blue light illumination	
